According to patent publication EP4596574A1, “GLP-1/GCG/GIP TRIPLE-RECEPTOR AGONIST AND USE THEREOF” (Sunshine Lake Pharma Co., Ltd., priority 2022, dated 2024):
Marks after values point to notes of the source that are not given here.

Assays:
[1] = Pharmacokinetic study in rats, single subcutaneous injection; settings: male, Sprague Dawley, in vivo, sc, rat, 50 nmol/kg single subcutaneous injection, plasma; for half-life: read-out: T1/2 (converted); for Tmax: read-out: Tmax
Protocol: The pharmacokinetic study of each polypeptide compound prepared in Example 1 was conducted using male Sprague Dawley rats. There were 3 male rats in each group. […] The dose was 50 nmol/kg, and a single subcutaneous injection was given (see Table 3 for specific peptide compounds). After administration, plasma was collected on the specified days and time points, and the concentration of each peptide compound in the plasma was detected by LC-MS/MS method. The pharmacokinetic parameters were obtained based on the concentration data, which were used to describe the pharmacokinetic properties of the peptide in rats after subcutaneous injection. Table 3: Summary of pharmacokinetic parameters of some triple-target peptides in rats

[2] = Glucose tolerance assessment in normal C57BL/6 mice (Example 5); format: in vivo; settings: 3 nmol/kg s.c. single dose, 24 h after administration
How it was run: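 Normal C57BL/6 mice given a single dose, fasted 12 h starting 12 h post-dose, then challenged with 2 g/kg glucose i.p. Tail-vein glucose measured at baseline and 15, 30, 60, 90 min. AUC0~90min calculated from the glucose–time curve per dose group.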

GCGR = biological target: T1, GCGR (Homo sapiens, UniProt P47871); test: In vitro cell activity, cAMP production in HEK293 cells expressing GCGR; format: cell-based
T1 construct: expressed in transfected cells; host or cells: HEK293 (HEK293-GCGR)
How it was run: (§1)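 Cells were plated at 4×10^5 cells/mL, and detection reagents (cAMP-d2, anti-cAMP cryptate, 1:1) were incubated 1 h at room temperature in the dark or overnight at 4 °C.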

GLP-1R = biological target: T2, GLP-1R (Homo sapiens, UniProt P43220); test: In vitro cell activity, cAMP production in HEK293 cells expressing GLP-1R; format: cell-based
T2 construct: expressed in transfected cells; host or cells: HEK293 (HEK293-GLP-1R)
How it was run: as §1

GIPR = biological target: T3, GIPR (Homo sapiens, UniProt P48546); test: In vitro cell activity, cAMP production in HEK293 cells expressing GIPR; format: cell-based
T3 construct: expressed in transfected cells; host or cells: HEK293 (HEK293-GIPR)
T3 sequence (P48546 22-466): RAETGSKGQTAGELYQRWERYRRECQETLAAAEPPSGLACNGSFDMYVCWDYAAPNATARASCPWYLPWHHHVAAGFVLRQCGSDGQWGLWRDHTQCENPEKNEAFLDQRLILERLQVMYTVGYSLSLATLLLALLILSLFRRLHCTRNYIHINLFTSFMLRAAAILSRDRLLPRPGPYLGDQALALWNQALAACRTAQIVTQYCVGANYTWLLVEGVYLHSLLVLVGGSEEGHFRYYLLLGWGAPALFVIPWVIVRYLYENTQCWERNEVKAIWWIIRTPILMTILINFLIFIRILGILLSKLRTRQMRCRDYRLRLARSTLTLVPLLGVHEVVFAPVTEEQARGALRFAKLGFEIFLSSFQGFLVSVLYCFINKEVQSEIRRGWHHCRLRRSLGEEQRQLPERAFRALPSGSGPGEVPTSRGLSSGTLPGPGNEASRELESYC
How it was run: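 cAMP accumulation is quantified by homogeneous TR-FRET (cAMP-d2 plus anti-cAMP cryptate) in GIPR-expressing HEK293 cells seeded from a 4×10^5 cells/mL suspension and treated with compound. The signal ratio is plotted against concentration and fitted to a four-parameter curve to give EC50.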

[3] = Glucose tolerance assessment in normal C57BL/6 mice (Example 4); format: in vivo
How it was run: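 Twelve hours after a single administration, mice were fasted 12 h and then given 2 g/kg glucose i.p. Tail-vein blood glucose was measured at baseline and at 15, 30, 60 and 90 min. AUC0–90min was calculated per dose group at 24 h post-dose.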

T2 sequence (P43220 24-463, species assumed): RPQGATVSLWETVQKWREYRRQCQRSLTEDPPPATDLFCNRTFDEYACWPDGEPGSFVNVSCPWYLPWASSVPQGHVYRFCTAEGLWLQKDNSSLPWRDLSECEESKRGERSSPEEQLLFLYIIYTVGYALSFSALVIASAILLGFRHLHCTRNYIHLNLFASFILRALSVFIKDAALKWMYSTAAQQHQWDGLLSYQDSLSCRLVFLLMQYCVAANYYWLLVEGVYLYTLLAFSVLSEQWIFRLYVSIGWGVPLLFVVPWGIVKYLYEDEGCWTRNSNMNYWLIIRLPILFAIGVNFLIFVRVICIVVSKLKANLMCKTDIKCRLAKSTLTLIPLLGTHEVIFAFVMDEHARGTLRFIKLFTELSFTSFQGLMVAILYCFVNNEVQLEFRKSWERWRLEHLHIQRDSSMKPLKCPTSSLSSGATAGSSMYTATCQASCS
T1 sequence (P47871 26-477, species assumed): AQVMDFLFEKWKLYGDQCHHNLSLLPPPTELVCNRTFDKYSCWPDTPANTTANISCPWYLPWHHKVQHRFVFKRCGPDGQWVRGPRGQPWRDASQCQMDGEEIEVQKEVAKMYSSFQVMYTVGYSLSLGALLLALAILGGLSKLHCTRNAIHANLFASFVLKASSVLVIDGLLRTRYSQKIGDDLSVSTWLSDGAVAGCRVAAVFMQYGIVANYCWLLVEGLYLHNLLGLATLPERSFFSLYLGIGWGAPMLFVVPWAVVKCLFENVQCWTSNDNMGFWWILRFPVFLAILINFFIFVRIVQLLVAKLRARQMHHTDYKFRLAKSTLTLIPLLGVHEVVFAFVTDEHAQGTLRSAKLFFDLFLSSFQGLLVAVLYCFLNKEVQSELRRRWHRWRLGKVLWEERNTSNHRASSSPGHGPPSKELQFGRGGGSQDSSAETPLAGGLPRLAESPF

Row | SMILES | AUC(0-inf) [1] [ng·h/mL] | AUC(0-t) [1] [ng·h/mL] | Cmax [1] [ng/mL] | half-life [1] [h] | Tmax [1] [h] | EC50 (GCGR) [nM] | EC50 (GLP-1R) [nM] | EC50 (GIPR) [nM] | other results
1 | CC[C@H](C)[C@H](NC(=O)[C@H](Cc1ccccc1)NC(=O)[C@H](C)NC(=O)[C@H](CCCNC(=N)N)NC(=O)[C@H](CCC(N)=O)NC(=O)[C@H](CCCNC(=N)N)NC(=O)[C@H](CCCCNC(=O)COCCOCCNC(=O)CC[C@H](NC(=O)CCCCCCCCCCCCCCCCC(=O)O)C(=O)O)NC(=O)[C@H](CCC(=O)O)NC(=O)[C@H](CC(=O)O)NC(=O)[C@H](CC(C)C)NC(=O)[C@H](CC(C)C)NC(=O)[C@@H](NC(=O)[C@H](CO)NC(=O)[C@H](Cc1ccc(O)cc1)NC(=O)[C@H](CC(=O)O)NC(=O)[C@H](CO)NC(=O)[C@@H](NC(=O)[C@](C)(Cc1ccccc1F)NC(=O)[C@@H](NC(=O)CNC(=O)[C@H](Cc1c[nH]cn1)NC(=O)C(C)(C)NC(=O)[C@@H](N)Cc1ccc(O)cc1)[C@@H](C)O)[C@@H](C)O)[C@@H](C)CC)C(=O)N[C@@H](CCC(=O)O)C(=O)N[C@@H](Cc1ccc(O)cc1)C(=O)N[C@@H](CC(C)C)C(=O)N[C@@H](CC(C)C)C(=O)N[C@@H](C)C(=O)NCC(=O)NCC(=O)N1CCC[C@H]1C(=O)N[C@@H](CO)C(=O)N[C@@H](CO)C(=O)NCC(=O)N[C@@H](C)C(=O)N1CCC[C@H]1C(=O)N1CCC[C@H]1C(=O)N1CCC[C@H]1C(=O)N[C@@H](CO)C(=O)O [HEC-PT119] | 43800 ± 10700 | 43500 ± 10700 | 974 ± 248 | 16 ± 1.6 | 19 ± 9.2 | 0.266 | 0.189 | 0.0484 | Blood glucose level (mM) 15 min ([2]; 15 min after 2 g/kg glucose i.p.): 14.0 ± 2.2 mM; Blood glucose level (mM) 30 min ([2]; 30 min after 2 g/kg glucose i.p.): 10.8 ± 1.8 mM; Blood glucose level (mM) 60 min ([2]; 60 min after 2 g/kg glucose i.p.): 7.8 ± 0.7 mM; Blood glucose level (mM) 90 min ([2]; 90 min after 2 g/kg glucose i.p.): 6.7 ± 0.7 mM; Blood glucose level (mM) 0 min ([2]; basal before 2 g/kg glucose i.p.): 4.1 ± 0.4 mM; AUC0-90 min ([2]; blood glucose AUC, 2 g/kg glucose i.p.): 817.4±95.1^a
2 | CC[C@H](C)[C@H](NC(=O)[C@H](Cc1ccccc1)NC(=O)[C@H](C)NC(=O)[C@H](CCC(N)=O)NC(=O)[C@H](CCC(N)=O)NC(=O)[C@H](CCCNC(=N)N)NC(=O)[C@H](CCCCNC(=O)COCCOCCNC(=O)CC[C@H](NC(=O)CCCCCCCCCCCCCCCCC(=O)O)C(=O)O)NC(=O)[C@H](CCC(=O)O)NC(=O)[C@H](CC(=O)O)NC(=O)[C@H](CC(C)C)NC(=O)[C@H](CC(C)C)NC(=O)[C@@H](NC(=O)[C@H](CO)NC(=O)[C@H](Cc1ccc(O)cc1)NC(=O)[C@H](CC(=O)O)NC(=O)[C@H](CO)NC(=O)[C@@H](NC(=O)[C@](C)(Cc1ccccc1F)NC(=O)[C@@H](NC(=O)CNC(=O)[C@H](CCC(N)=O)NC(=O)C(C)(C)NC(=O)[C@@H](N)Cc1ccc(O)cc1)[C@@H](C)O)[C@@H](C)O)[C@@H](C)CC)C(=O)N[C@@H](CCC(=O)O)C(=O)N[C@@H](Cc1ccc(O)cc1)C(=O)N[C@@H](CC(C)C)C(=O)N[C@@H](CC(C)C)C(=O)N[C@@H](CCC(=O)O)C(=O)NCC(=O)NCC(=O)N1CCC[C@H]1C(=O)N[C@@H](CO)C(=O)N[C@@H](CO)C(=O)NCC(=O)N[C@@H](C)C(=O)N1CCC[C@H]1C(=O)N1CCC[C@H]1C(=O)N1CCC[C@H]1C(=O)N[C@@H](CO)C(=O)O [HEC-PT82] | 29400 ± 3050 | 29100 ± 3030 | 836 ± 217 | 17 ± 0.8 | 8.7 ± 2.3 | 0.615 | 0.36 | 0.0831 | Blood glucose level (mM) 15 min ([3]; 3 nmol/kg s.c. single dose, 24 h after administration, 15 min after 2 g/kg glucose i.p.): 12.4 ± 4.3 mM; Blood glucose level (mM) 30 min ([3]; 3 nmol/kg s.c. single dose, 24 h after administration, 30 min after 2 g/kg glucose i.p.): 7.6 ± 1.5 mM; Blood glucose level (mM) 60 min ([3]; 3 nmol/kg s.c. single dose, 24 h after administration, 60 min after 2 g/kg glucose i.p.): 6.9 ± 0.8 mM; Blood glucose level (mM) 90 min ([3]; 3 nmol/kg s.c. single dose, 24 h after administration, 90 min after 2 g/kg glucose i.p.): 6.6 ± 0.6 mM; Blood glucose level (mM) 0 min ([3]; 3 nmol/kg s.c. single dose, 24 h after administration, basal before 2 g/kg glucose i.p.): 3.8 ± 0.6 mM; improvement of glucose tolerance compared with LY3298176 ([3]; 24 hours after a single administration, 3 nmol/kg): more effective in improving glucose tolerance than the positive control LY3298176; AUC0-90 min ([3]; blood glucose AUC, 3 nmol/kg s.c. single dose, 24 h after administration, 2 g/kg glucose i.p.): 691.8±116.4^a
